# Assay results taken from ChEMBL document CHEMBL5108060, “Discovery, Characterization, and Structure-Based Optimization of Small-Molecule In Vitro and In Vivo Probes for Human DNA Polymerase Theta” (J Med Chem, 2022).
# Experiments:
# DNA polymerase theta [1] = molecular target: T1, DNA polymerase theta (Homo sapiens, UniProt O75417); assay: Inhibition of recombinant human full length DNA polymerase theta using DNA substrate measured after 1 hrs in presence of dNTPs by plate reader assay
# [2] = Metabolic stability in mouse liver microsomes assessed as intrinsic clearance; type: ADME, Microsome; details: read-out: CLH
# DLD-1 [3] = assay: Antiproliferative activity against human BRCA-2 deficient DLD-1 cells; type: functional, cell-based
# DNA polymerase theta [4] = molecular target: T1, DNA polymerase theta; assay: Displacement of tracer from recombinant Tb-labeled DNA polymerase theta (unknown origin) assessed as end point Kd using DNA as substrate preincubated for 30 mins followed by compound addition for 2 hrs by HTRF assay
# DLD-1 [5] = assay: Antiproliferative activity against human DLD-1 cells; type: functional, cell-based
# [6] = Inhibition of microhomology-mediated end joining in HEK293 cells; type: functional, cell-based, Homo sapiens
# [7] = Lipophilicity, logD of compound; type: physicochemical; details: octanol/water
# [8] = Metabolic stability in rat liver microsomes assessed as intrinsic clearance; type: ADME, Microsome; details: read-out: CLH
# [9] = Metabolic stability in human liver microsomes assessed as intrinsic clearance; type: ADME, Microsome; details: read-out: CLH
# T1 sequence (O75417 whole entry): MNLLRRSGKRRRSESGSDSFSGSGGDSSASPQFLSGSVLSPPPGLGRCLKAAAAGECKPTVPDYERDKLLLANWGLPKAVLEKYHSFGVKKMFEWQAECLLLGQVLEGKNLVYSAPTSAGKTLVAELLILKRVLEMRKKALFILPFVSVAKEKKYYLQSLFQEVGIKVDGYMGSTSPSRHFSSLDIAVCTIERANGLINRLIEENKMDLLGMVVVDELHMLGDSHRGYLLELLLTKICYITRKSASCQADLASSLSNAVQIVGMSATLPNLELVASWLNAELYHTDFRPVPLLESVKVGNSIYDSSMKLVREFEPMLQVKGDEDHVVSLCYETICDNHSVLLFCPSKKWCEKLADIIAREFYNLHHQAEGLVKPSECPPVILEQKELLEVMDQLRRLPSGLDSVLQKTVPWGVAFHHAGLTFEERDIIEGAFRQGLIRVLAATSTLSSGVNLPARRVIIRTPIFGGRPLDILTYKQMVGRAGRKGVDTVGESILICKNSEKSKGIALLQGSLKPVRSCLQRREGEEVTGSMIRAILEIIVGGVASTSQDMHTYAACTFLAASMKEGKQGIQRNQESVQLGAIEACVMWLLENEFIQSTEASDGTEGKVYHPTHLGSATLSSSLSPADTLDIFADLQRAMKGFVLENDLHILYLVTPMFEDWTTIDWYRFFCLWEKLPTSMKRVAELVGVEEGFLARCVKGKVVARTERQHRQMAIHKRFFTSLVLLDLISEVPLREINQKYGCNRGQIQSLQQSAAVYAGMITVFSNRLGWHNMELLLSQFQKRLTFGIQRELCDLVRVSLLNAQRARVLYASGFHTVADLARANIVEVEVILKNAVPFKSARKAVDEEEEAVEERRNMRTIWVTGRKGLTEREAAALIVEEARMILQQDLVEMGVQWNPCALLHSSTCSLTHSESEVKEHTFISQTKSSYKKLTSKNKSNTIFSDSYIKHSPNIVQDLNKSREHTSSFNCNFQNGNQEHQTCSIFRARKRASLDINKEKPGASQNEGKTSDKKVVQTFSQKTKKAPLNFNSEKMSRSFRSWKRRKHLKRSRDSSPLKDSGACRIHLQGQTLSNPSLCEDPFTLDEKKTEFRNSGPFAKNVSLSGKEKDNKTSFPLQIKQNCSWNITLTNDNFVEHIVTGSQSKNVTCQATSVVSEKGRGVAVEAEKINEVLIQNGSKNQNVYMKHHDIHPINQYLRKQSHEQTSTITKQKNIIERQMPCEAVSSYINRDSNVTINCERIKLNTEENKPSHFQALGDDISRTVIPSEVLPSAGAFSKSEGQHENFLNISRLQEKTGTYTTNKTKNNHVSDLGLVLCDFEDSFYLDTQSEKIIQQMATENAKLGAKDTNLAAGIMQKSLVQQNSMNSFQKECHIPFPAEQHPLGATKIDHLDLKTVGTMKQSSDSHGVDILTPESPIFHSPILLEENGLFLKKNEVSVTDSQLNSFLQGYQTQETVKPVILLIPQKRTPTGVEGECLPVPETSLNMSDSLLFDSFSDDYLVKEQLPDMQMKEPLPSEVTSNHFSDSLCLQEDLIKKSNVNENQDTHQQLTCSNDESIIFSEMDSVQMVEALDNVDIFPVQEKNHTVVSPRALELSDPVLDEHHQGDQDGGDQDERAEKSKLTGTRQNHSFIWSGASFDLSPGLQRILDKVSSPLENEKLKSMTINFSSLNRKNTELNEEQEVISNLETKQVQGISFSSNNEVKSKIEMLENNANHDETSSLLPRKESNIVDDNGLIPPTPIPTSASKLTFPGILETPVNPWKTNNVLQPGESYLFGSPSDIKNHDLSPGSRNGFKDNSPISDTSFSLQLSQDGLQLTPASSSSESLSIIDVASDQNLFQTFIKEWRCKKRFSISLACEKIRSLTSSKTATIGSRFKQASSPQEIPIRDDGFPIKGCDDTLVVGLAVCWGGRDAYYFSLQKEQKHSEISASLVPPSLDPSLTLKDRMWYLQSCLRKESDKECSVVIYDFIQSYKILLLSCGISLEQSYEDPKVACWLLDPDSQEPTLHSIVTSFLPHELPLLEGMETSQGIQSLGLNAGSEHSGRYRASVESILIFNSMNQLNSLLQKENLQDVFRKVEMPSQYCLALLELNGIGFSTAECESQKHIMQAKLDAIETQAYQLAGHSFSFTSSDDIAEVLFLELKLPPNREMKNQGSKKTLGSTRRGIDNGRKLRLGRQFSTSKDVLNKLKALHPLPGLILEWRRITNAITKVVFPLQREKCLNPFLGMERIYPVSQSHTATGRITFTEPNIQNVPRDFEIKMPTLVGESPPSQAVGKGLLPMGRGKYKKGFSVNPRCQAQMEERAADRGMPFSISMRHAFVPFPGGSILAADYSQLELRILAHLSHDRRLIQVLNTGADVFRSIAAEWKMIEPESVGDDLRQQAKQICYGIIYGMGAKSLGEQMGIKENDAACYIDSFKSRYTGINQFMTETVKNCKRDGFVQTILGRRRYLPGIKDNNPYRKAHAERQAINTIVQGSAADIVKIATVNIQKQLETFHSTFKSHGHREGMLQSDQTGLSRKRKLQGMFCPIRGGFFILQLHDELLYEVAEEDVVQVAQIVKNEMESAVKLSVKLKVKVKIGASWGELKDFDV
SMILES,IC50 (DNA polymerase theta [1]),microsomal CLint [2],EC50 (DLD-1 [3]),EC50 (DLD-1 [5]),EC50 [6],also measured
CCN(C(=O)[C@@H]1COCCN1c1nc(C)cc(C(F)(F)F)c1C#N)c1cccc(C)c1,2700 nM,,,,,
CCN(C(=O)COc1nc(C)c(Cl)c(C)c1C#N)c1cccc(C)c1,630 nM,,,,,
Cc1cc(C(F)(F)F)cc(N2C(=O)OC[C@H]2C(=O)N(C)c2ccc(F)c(Cl)c2F)n1,5.4 nM,210 µL/min/mg,,,,
CCN(C(=O)COc1nc(C)cc(C)c1C#N)c1cccc(C)c1,4400 nM,,> 12000 nM,> 12000 nM,1840 nM,Kd (DNA polymerase theta [4]): 820 nM
Cc1cc(C(F)(F)F)cc(N2C(=O)OC[C@H]2C(=O)N(C)c2cc(Cl)c(F)cc2F)n1,,98 µL/min/mg,,,,
Cc1cc(C(F)(F)F)cc(N2C(=O)C[C@@H](O)[C@H]2C(=O)N(C)c2ccc(F)c(Cl)c2)n1,5.9 nM,260 µL/min/mg,2000 nM,> 12000 nM,255 nM,
Cc1cc(C(F)(F)F)cc(N2C(=O)OC[C@H]2C(=O)N(C)c2ccc(F)c(Cl)c2)n1,15 nM,138 µL/min/mg,,,,
Cc1cccc(N(C)C(=O)[C@@H]2CCC(=O)N2c2cc(C(F)(F)F)cc(C)n2)c1,6.8 nM,> 1000 µL/min/mg,,,,logD [7]: 3.7
Cc1cccc(N(C)C(=O)[C@@H]2C[C@@H](O)CN2c2nc(C)cc(C(F)(F)F)c2C#N)c1,,,6000 nM,> 12000 nM,315 nM,
CCN(C(=O)[C@H](CO)Nc1nc(C)cc(C(F)(F)F)c1C#N)c1cccc(C)c1,79 nM,,11000 nM,> 12000 nM,255 nM,logD [7]: 4; Kd (DNA polymerase theta [4]): 35 nM
CCN(C(=O)[C@@H]1[C@H](O)[C@H](O)C(=O)N1c1cc(C(F)(F)F)cc(C)n1)c1ccc(F)c(Cl)c1,,20 µL/min/mg,6900 nM,> 12000 nM,362 nM,microsomal CLint [8]: 30 µL/min/mg; microsomal CLint [9]: < 10 µL/min/mg
Cc1cc(C(F)(F)F)c(C#N)c(N2C[C@@H](O)C[C@H]2C(=O)N(C)c2ccccc2)n1,,,8000 nM,> 12000 nM,400 nM,Kd (DNA polymerase theta [4]): 110 nM
Cc1cc(C(F)(F)F)cc(N2C(=O)OC[C@H]2C(=O)N(C)c2cccc(Cl)c2F)n1,,165 µL/min/mg,,,,
CCN(C(=O)[C@@H]1C[C@H](O)C(=O)N1c1cc(C(F)(F)F)cc(C)n1)c1ccc(F)c(Cl)c1,,181 µL/min/mg,,,,
Cc1cc(C(F)(F)F)cc(N2C(=O)[C@@H](O)C[C@H]2C(=O)N(C)c2ccc(F)c(Cl)c2)n1,,96 µL/min/mg,,,,microsomal CLint [9]: 60 µL/min/mg
Cc1cccc(N(C)C(=O)[C@@H]2C[C@H](O)CN2c2nccc(C(F)(F)F)c2C#N)c1,,,11500 nM,> 12000 nM,1030 nM,
Cc1cccc(N(C)C(=O)[C@@H]2COC(=O)N2c2cc(C(F)(F)F)cc(C)n2)c1,,580 µL/min/mg,,,,logD [7]: 3.6
CCN(C(=O)COc1nc(C)c(Br)c(C(F)(F)F)c1C#N)c1cccc(C)c1,400 nM,,,,,
Cc1cc(C(F)(F)F)cc(N2C(=O)OC[C@H]2C(=O)N(c2ccc(F)c(Cl)c2)C(C)C)n1,,48 µL/min/mg,,,,logD [7]: 4.4
CCN(C(=O)COc1cc(C(C)C)cc(C)n1)c1cccc(C)c1,400 nM,,,,,
CCN(C(=O)COc1nc(C)c(Br)c(C)c1C#N)c1cccc(C)c1,1500 nM,,,,,
